One molecule from ChEMBL document CHEMBL5137000, “Discovery of a novel and potent inhibitor with differential species-specific effects against NLRP3 and AIM2 inflammasome-dependent pyroptosis” (Eur J Med Chem, 2022) can be followed below.

This assay addresses NACHT, LRR and PYD domains-containing protein 3 (Homo sapiens) (UniProt Q96P20). The assay can be described thus: Inhibition of NLRP3 inflammasome activation in LPS-primed human THP-1 cells assessed as reduction in nigericin-induced IL-1beta release in supernatant pretreated for 30 mins followed by nigericin stimulation and measured after 30 min by ELISA. Format: cell-based. The settings on record: time 60.0 min.

Molecules are shown by their SMILES. The source made the active and inactive calls. No cut-off for these calls is given here.

Chain of NACHT, LRR and PYD domains-containing protein 3 (Homo sapiens) (Q96P20 whole entry, the tested form may be a part): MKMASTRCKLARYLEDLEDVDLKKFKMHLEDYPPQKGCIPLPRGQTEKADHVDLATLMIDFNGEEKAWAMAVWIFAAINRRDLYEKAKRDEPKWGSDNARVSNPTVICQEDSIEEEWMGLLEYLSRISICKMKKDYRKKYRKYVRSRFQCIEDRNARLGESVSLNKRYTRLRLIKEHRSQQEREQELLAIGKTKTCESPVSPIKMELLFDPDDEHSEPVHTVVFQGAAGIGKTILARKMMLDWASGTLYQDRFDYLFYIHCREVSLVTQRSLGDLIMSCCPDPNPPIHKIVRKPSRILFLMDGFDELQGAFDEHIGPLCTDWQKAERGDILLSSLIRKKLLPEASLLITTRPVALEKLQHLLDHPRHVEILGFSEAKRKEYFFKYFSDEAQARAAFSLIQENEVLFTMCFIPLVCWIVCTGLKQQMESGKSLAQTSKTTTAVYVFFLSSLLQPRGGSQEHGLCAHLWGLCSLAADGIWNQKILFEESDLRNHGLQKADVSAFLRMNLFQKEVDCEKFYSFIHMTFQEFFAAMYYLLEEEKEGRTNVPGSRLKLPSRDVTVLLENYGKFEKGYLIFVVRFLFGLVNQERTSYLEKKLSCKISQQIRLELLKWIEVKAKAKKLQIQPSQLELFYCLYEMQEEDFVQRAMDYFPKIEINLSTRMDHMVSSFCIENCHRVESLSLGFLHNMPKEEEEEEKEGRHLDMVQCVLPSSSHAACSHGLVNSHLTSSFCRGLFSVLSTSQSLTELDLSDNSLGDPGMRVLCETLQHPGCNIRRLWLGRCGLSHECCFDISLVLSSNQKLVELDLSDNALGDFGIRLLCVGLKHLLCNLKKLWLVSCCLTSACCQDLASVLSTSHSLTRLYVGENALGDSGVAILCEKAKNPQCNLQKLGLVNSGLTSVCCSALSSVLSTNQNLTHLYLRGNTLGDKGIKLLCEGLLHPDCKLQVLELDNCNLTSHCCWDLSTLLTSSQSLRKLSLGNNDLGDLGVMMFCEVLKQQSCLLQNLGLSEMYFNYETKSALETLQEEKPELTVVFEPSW

In the case of `COc1ccc(CC(=O)Nc2cccc(B(O)O)c2)cc1`, the inhibition entry was “Active”.
